Tests used:
[1] = in vivo; conditions: female, albino, rabbit
Description: Vitreous humor samples (n=4 eyes per timepoint) were collected at 0.5, 1, 2, 4, 8, and 12 hr postdose. The TKI concentration in the vitreous humor was determined using a liquid chromatography tandem mass spectrometry method (LC-MS/MS).

[2] = tested on: macula edema patient; assay: Treatment of macular edema with intravitreal TKI composition (ETDRS visual acuity chart); assay type: in vivo, human; conditions: twelve months after first injection; 1 mg intravitreal every 4 months; high viscosity hyaluronate solution such as Example 13 formulation
Description: An obese patient with symptoms of diabetes presents with vision loss due to macula edema with central retinal vein occlusion and/or branch retinal vein occlusion. They receive intravitreal injection of 1 mg of a high viscosity TKI (polymeric hyaluronate based) solution containing COMPOUND F, such as the Example 13 formulation. Equivalent injections are made every 4 months.

Row | AUC(0-t) [1] [ng·h/mL] | C0 [1] [ng/mL] | Vd [1] [L] | clearance [1] [mL/min] | half-life [1] [h] | Structure (SMILES) | improved best corrected visual acuity from baseline (ETDRS chart) [2]
1 | 778 | 566 | 0.000705 | 0.00433 | 2.59 | Nc1ccc2c(c1)/C(=C1\C(=O)Nc3ccc(Cl)cc31)OC2 [COMPOUND A, 3-(6-Amino-3H-isobenzofuran-1-ylidene)-5-chloro-1,3-dihydro-indol-2-one] | 
2 |  |  |  |  |  | Cc1cc(C(=O)Nc2cccc(C#Cc3cncc(C(=O)N=S(C)(=O)c4ccc(CCC(=O)O)cc4)c3)c2)n(C)n1 (stereo not drawn) [COMPOUND F] | fifteen
